In ChEMBL document CHEMBL1201862, “PubChem BioAssay data set” (2004):
Active and inactive are the calls of the source.

Key:
Saccharomyces cerevisiae = test: S. cerevisiae Caspase-1/ASC signal blockers IC50, NALP1 inhibitor project selectivity test (AID 488863); type: functional, organism-based
[1] = target: T1, Ubiquitin-conjugating enzyme E2 N (Homo sapiens, UniProt P61088); type: functional;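 note: Dose-response confirmation in a TR-FRET assay detecting UBC13-driven polyubiquitin chain formation, inhibition measured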
T1 sequence (P61088 whole entry): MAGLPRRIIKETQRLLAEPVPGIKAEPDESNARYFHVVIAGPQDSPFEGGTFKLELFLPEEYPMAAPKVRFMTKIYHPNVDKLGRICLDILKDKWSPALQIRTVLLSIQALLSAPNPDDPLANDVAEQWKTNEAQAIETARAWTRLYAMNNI

[2] = target: NACHT, LRR and PYD domains-containing protein 1 (Homo sapiens, UniProt Q9C000); test: NALP1 inhibitors in yeast, dose response, luminescent (AID 488860); type: functional
[3] = luciferase reporter signal suppression in cells – H4 neuroglioma cells, luminescence, dose response (AID 1990); type: functional, cell-based
[4] = luciferase reporter signal reduction – luminescence, H4-C neuroglioblastoma cells, dose response (AID 2458); type: functional, cell-based;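 note: H4 neuroglioblastoma cells stably carrying a luciferase reporter gene fusion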
BJ [5] = test: BJ-TERT fibroblast viability loss – cell-based, RAS-independent, luminescence, dose response (AID 1933); type: functional; conditions: Homo sapiens
cells = type: functional, cell-based
[6] = Luminescence Cell-Based Dose Response HTS to Identify Inhibitors of 5'UTR Stem-Loop Driven Prion Protein mRNA Translation in H4 Neuroglioblastoma Cells. [Related pubchem assays: 1827 (Project Summary), 1813 (Primary HTS)]; type: functional
[7] = alpha-synuclein stem-loop luciferase translation blockers – H4 neuroglioma cells, luminescence, confirmation (AID 1988); type: functional, cell-based
BJ [8] = test: cells; type: functional, cell-based; conditions: Homo sapiens
J774.A1 = test: Confirmation of image-based Screening Assay for Inhibitors of Phagocytosis. [Related pubchem assays (depositor defined):AID1029, AID1643]; type: functional, cell-based; conditions: Mus musculus
BJ [9] = test: BJ-TERT-LT-ST fibroblast viability loss – cell-based, RAS-independent, luminescence, dose response (AID 1935); type: functional; conditions: Homo sapiens;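 note: BJ fibroblasts immortalized with TERT plus LT and ST oncogenes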
[10] = DRD fibroblast viability loss – cell-based, non-viral oncogenic, luminescence, dose response (AID 1934); type: functional; conditions: Homo sapiens
[11] = alpha-synuclein stem-loop translation blockers – luminescence, H4 neuroglioblastoma cells, dose confirmation, confirmation (AID 2454); type: functional, cell-based;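 note: H4 neuroglioblastoma cells carrying an alpha-synuclein 5'UTR luciferase reporter; potency for inhibition of the luciferase signal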
Protein Rev = Protein Rev (Human immunodeficiency virus type 1 group M subtype B (isolate HXB2)(HIV-1), UniProt P04618); test: blockers of HIV Rev/RRE RNA complex – biochemical, fluorescence polarization, HIV-1, dose response (AID 434976); design: species or system Human immunodeficiency virus 1
[12] = target: Female germline-specific tumor suppressor gld-1 (Caenorhabditis elegans, UniProt Q17339); test: blockers of GLD-1/TGE RNA complex formation – biochemical, fluorescence polarization, C. elegans, dose response (AID 2802);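 note: fluorescence polarization of labeled TGE RNA bound by purified gld-1 protein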
[13] = target: T2, Short transient receptor potential channel 4 (Mus musculus, UniProt Q9QUQ5); test: calcium entry via TRPC4 opening agents – cell-based, HEK293 TRPC4/mu-opioid, Fluo-4 calcium, dose response (AID 434937); type: functional
T2 sequence (Q9QUQ5 whole entry): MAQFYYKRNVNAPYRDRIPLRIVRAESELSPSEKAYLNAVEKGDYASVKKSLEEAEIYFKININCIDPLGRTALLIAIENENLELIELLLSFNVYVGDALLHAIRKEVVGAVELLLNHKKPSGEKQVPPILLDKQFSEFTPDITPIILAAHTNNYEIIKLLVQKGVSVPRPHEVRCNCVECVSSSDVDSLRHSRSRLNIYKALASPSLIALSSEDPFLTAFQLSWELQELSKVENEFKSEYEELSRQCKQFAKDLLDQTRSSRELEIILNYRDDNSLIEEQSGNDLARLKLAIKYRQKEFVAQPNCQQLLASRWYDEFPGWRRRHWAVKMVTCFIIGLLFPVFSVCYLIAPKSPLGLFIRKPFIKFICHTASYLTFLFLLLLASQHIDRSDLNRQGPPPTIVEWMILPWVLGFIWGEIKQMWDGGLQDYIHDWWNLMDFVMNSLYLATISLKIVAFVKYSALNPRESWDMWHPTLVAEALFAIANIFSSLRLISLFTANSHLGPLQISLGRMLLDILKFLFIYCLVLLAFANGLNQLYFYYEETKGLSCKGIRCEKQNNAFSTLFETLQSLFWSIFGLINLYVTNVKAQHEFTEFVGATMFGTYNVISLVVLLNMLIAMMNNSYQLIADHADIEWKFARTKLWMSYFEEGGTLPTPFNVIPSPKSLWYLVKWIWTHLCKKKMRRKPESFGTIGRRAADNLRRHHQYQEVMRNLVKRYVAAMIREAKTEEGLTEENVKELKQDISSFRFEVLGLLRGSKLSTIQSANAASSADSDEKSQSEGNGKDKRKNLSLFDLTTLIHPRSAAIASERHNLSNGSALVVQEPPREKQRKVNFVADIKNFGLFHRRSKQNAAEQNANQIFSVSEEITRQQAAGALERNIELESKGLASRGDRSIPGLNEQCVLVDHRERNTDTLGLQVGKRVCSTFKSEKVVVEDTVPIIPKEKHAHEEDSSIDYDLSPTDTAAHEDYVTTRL

Nonstructural protein 1 = Nonstructural protein 1 (Influenza A virus, UniProt Q194T2); type: functional, Influenza A virus (A/California/07/2009(H1N1))
Trypsin = Trypsin (Sus scrofa, UniProt P00761); test: trypsin protease activity blockade – biochemical, quenched peptide fluorescence, cherry-pick, selectivity assay for Rce1 protease inhibitor project, dose response (AID 488789)
CAAX prenyl protease 2 [14] = target: CAAX prenyl protease 2 (Saccharomyces cerevisiae S288c, UniProt Q03530); type: biochemical
CAAX prenyl protease 1 = CAAX prenyl protease 1 (Saccharomyces cerevisiae S288c, UniProt P47154); test: yeast CAAX protease Ste24 inhibition – biochemical, S. cerevisiae, plate reader, cherry-pick, dose response (AID 488815)
CAAX prenyl protease 2 [15] = target: T3, CAAX prenyl protease 2 (Homo sapiens, UniProt Q9Y256); test: inhibition of Ras-converting CAAX protease Rce1 – biochemical, yeast membranes, quenched-peptide fluorescence, cherry-pick, dose response (AID 588849)
T3 sequence (Q9Y256 whole entry): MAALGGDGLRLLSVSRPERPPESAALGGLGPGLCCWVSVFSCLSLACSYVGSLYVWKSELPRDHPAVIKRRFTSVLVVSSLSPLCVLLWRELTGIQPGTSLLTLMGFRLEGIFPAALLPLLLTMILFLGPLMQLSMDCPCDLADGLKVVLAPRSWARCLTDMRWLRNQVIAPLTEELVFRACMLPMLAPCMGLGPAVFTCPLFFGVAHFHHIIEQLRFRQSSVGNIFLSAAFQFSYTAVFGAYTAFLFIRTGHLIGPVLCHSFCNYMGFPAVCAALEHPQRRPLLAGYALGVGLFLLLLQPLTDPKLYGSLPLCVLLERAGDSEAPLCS

[16] = HIV-1 Vif–A3G interaction blockers – biochemical, TR-FRET, GST-Vif 1-94, biotin-A3G peptide, dose response retest, primary screen (AID 1117319); type: functional;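 note: TR-FRET signal of purified GST-Vif binding a biotinylated A3G peptide; inhibitors lower the FRET signal by blocking Vif and A3G binding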
Large T antigen = Large T antigen (Simian virus 40, UniProt P03070); type: functional, Betapolyomavirus macacae;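 note: Confirmatory-stage PubChem screen for compounds that inhibit SV40 T antigen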
Estrogen receptor beta [17] = target: T4, Estrogen receptor beta (Homo sapiens, UniProt Q92731);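 note: recombinant ER-beta bound to coactivator SRC1 peptide in presence of estradiol agonist; inhibitors block coactivator peptide binding and lower the FRET signal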
Estrogen receptor beta [18] = target: T4, Estrogen receptor beta; test: blockers of SRC-3 recruitment to ERβ – biochemical, ELISA, streptavidin-HRP readout, orthogonal assay, confirmation (AID 1060)
[19] = antiviral protection against BTV-induced cell death – arbovirus, BSR cells, confirmation (AID 1250); type: functional;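 note: protection from viral cytopathic effect measured as cell viability by ATP luminescence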
[20] = target: Induced myeloid leukemia cell differentiation protein Mcl-1 (Homo sapiens, UniProt Q07820); type: functional
[21] = protection from phage-mediated lysis, alamar blue read-out – E. coli UTI89, K1F phage, bacterial capsule biogenesis inhibitors (AID 488966); type: functional
[22] = target: 26S proteasome non-ATPase regulatory subunit 14 (Homo sapiens, UniProt O00487); test: inhibition of proteasome subunit RPN11 – biochemical, fluorescence polarization, uHTS hits, confirmation (AID 602368); type: functional
[23] = target: 72 kDa type IV collagenase (Homo sapiens, UniProt P08253); test: Dose Response validation of uHTS RPN11 inhibitor hits using a MMP-2 Fluorescence assay.; type: functional
Prothrombin = Prothrombin (Bos taurus, UniProt P00735); test: thrombin protease inhibitors – biochemical, fluorescence polarization, uHTS hits, dose response (AID 602369); type: functional
Protein skinhead-1 = target: T5, Protein skinhead-1 (Caenorhabditis elegans, UniProt P34707); type: functional
T5 sequence (P34707 whole entry): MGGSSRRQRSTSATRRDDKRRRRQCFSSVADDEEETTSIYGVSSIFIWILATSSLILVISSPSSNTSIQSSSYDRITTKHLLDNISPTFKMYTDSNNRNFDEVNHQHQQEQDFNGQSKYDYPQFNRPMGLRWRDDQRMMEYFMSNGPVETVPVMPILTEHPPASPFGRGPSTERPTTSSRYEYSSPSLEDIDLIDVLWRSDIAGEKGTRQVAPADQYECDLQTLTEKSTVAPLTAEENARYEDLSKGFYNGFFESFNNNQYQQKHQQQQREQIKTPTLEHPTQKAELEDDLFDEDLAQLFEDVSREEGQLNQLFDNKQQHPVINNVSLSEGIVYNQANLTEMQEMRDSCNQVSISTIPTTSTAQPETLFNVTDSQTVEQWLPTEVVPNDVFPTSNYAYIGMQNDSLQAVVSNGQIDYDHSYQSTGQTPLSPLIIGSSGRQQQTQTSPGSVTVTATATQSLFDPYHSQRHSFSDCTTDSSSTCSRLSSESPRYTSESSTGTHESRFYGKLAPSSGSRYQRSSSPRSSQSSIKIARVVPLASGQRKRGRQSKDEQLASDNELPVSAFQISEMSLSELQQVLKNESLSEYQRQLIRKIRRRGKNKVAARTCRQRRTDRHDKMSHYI

Protein Tat = Protein Tat (Human immunodeficiency virus type 1 group M subtype B (isolate HXB2)(HIV-1), UniProt P04608); type: functional;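 note: tat binding to TAR RNA read out by fluorescence polarization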
[24] = target: T6, Voltage-gated N-type calcium channel alpha-1B subunit/Amyloid beta A4 precursor protein-binding family A member 1 (Homo sapiens, UniProt Q00975+Q02410); type: protein assay
[25] = target: T6, Voltage-gated N-type calcium channel alpha-1B subunit/Amyloid beta A4 precursor protein-binding family A member 1; type: protein assay; remark: listed apart in the source
Caspase-3 = target: T7, Caspase-3 (Homo sapiens, UniProt P42574); test: activation of caspase-3 zymogen – biochemical, absorbance, dose response (AID 489014)
T7 sequence (P42574 whole entry): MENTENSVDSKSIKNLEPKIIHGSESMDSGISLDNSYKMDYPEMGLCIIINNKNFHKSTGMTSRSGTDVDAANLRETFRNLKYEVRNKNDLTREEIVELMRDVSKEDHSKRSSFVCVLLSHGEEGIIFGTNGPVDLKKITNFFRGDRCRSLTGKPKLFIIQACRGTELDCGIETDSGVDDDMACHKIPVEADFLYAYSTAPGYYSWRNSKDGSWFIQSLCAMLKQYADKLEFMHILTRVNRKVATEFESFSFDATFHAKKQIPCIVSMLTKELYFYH

Caspase-7 = Caspase-7 (Homo sapiens, UniProt P55210); test: activation of caspase-7 zymogen – biochemical, absorbance, counter-screen for procaspase-3 activator project, dose response (AID 489013)

T6 sequence (Q00975 whole entry): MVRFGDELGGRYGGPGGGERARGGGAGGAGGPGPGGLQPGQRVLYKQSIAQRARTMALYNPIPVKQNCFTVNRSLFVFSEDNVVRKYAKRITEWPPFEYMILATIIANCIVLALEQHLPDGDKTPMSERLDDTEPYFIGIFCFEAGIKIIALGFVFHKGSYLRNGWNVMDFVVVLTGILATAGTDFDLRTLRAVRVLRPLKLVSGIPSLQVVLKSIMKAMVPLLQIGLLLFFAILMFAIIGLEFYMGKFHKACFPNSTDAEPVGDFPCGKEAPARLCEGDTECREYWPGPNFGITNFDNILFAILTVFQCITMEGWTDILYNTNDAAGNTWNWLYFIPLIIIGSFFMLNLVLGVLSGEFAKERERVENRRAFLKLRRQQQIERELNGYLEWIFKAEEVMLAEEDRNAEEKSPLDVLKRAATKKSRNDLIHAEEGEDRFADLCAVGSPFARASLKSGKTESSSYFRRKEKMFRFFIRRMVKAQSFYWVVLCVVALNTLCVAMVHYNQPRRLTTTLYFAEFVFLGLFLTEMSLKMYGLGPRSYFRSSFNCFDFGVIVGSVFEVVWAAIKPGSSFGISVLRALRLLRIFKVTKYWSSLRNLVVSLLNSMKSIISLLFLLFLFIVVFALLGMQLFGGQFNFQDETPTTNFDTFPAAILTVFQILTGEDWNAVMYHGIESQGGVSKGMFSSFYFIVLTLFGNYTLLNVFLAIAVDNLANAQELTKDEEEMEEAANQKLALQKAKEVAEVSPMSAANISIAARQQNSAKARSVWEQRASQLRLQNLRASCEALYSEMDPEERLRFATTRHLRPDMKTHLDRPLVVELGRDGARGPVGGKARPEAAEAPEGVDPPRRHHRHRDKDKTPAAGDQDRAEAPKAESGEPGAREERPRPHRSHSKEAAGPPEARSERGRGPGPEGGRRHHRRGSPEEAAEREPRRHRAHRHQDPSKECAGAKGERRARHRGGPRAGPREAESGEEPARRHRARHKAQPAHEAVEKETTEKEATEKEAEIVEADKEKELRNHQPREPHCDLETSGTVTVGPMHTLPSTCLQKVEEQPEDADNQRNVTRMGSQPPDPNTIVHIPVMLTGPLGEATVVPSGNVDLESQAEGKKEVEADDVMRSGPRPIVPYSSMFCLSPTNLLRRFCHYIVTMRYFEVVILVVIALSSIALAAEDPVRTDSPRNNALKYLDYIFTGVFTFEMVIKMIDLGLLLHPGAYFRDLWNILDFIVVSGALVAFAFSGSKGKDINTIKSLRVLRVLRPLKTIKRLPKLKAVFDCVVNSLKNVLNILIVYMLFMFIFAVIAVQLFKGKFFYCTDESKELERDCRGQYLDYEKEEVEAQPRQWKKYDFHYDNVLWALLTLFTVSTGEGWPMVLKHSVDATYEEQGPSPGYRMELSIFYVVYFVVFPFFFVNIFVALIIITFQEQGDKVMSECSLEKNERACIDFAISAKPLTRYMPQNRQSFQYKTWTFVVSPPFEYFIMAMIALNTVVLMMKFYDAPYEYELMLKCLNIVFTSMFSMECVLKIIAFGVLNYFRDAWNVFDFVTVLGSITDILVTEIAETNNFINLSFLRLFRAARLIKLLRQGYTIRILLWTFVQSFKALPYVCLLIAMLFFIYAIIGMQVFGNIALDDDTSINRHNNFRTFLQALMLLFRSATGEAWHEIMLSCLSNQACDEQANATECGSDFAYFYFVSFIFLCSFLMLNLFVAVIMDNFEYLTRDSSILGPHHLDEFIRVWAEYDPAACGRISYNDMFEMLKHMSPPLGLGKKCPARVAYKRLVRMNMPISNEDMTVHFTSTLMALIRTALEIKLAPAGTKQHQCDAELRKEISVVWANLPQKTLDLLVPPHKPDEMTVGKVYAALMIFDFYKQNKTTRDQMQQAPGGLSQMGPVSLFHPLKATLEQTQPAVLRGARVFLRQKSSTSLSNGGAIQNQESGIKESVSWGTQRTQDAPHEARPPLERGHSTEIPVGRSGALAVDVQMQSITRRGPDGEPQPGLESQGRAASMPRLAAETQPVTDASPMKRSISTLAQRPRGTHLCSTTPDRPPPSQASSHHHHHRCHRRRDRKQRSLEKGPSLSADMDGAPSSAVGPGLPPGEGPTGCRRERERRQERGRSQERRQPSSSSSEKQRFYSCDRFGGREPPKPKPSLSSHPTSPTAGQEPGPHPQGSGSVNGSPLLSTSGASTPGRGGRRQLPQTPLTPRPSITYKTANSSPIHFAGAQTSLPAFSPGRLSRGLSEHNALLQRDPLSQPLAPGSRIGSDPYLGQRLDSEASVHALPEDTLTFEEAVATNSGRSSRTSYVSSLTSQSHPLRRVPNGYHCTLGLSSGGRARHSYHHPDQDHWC
T6 sequence (Q02410 whole entry): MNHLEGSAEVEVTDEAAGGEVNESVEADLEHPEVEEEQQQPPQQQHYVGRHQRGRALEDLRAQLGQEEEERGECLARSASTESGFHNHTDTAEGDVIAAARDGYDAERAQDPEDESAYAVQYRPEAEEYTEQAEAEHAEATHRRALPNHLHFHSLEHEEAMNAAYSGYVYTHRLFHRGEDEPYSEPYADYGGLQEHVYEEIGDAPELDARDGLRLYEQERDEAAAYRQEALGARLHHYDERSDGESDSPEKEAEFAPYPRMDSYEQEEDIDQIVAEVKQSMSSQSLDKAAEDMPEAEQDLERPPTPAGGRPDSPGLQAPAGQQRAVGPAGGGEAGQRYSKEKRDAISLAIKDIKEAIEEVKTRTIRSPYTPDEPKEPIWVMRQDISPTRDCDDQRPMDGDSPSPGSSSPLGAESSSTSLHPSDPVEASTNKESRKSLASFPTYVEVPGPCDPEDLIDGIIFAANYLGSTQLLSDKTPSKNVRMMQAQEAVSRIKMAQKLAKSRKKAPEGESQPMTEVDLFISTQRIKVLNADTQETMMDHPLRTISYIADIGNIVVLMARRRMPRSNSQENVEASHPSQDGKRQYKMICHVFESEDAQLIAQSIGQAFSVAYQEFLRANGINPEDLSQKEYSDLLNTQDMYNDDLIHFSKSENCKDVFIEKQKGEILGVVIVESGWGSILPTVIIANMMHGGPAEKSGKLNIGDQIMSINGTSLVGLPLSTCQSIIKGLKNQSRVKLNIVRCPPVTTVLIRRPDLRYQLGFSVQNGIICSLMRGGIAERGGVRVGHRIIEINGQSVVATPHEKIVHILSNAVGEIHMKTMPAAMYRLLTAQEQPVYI
T4 sequence (Q92731 whole entry): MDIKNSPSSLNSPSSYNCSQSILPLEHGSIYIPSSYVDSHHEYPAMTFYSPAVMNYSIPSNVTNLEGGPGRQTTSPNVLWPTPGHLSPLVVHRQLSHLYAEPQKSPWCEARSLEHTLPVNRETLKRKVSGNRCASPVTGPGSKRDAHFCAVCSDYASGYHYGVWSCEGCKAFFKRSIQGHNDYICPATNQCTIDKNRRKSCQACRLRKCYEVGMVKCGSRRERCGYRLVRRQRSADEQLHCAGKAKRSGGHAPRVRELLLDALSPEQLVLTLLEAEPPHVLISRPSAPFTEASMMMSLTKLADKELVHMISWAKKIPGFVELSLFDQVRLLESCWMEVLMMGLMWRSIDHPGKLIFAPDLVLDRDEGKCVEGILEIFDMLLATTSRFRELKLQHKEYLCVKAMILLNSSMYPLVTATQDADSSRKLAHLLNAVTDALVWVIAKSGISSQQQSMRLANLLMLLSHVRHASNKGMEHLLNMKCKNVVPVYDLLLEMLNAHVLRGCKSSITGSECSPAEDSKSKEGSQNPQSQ
Chain of Female germline-specific tumor suppressor gld-1 (Q17339 whole entry): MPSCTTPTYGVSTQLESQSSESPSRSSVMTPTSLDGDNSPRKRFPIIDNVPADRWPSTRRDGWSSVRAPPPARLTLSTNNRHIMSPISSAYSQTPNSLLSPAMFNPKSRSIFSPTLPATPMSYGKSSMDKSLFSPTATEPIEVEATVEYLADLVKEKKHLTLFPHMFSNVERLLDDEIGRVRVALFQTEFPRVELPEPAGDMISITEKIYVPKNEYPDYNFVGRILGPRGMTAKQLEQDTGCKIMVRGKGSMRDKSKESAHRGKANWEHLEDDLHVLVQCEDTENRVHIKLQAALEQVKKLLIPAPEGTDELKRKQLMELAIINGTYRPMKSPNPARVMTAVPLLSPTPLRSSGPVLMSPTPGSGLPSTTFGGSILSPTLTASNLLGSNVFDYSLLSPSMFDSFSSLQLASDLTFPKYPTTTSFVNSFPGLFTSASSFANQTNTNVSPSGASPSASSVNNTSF
Chain of 26S proteasome non-ATPase regulatory subunit 14 (O00487 whole entry): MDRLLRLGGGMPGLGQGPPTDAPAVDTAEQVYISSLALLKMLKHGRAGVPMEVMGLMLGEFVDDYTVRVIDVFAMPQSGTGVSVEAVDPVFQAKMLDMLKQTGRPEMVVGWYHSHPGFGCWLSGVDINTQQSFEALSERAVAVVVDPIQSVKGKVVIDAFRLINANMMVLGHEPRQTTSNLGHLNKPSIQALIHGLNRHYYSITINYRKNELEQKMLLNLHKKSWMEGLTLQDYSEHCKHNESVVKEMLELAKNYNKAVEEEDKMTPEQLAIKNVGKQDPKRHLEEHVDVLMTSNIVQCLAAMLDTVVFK
Chain of CAAX prenyl protease 1 (P47154 whole entry): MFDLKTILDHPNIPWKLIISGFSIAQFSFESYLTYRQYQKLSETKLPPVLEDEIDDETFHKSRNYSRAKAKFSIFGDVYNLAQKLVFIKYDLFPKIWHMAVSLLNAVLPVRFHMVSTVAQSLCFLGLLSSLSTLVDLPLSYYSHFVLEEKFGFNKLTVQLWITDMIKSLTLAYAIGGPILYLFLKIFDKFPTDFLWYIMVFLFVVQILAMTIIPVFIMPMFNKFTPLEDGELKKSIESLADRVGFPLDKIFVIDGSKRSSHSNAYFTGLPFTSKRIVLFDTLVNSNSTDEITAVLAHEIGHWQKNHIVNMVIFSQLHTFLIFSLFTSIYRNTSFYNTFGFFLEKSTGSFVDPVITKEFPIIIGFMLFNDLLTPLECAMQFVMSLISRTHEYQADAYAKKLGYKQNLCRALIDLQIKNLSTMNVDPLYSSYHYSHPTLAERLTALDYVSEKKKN
Chain of Protein Tat (P04608 whole entry): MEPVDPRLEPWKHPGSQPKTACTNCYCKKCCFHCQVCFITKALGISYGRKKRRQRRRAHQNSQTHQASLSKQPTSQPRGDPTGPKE

## Cc1ccc2nc(N(CCCN(C)C)C(=O)c3sc4ccccc4c3Cl)sc2c1
Saccharomyces cerevisiae
  IC50: 6.52 µM (active)
[1]
  IC50: > 20 µM (inactive)
[2]
  IC50: 16.9 µM (active)

## COC(=O)Nc1nc(-c2ccccc2)c(C(=O)c2ccccc2)s1
[3]
  EC50: 1.73 µM (active)
[4]
  EC50: 1.04 µM (active)
BJ [5]
  EC50: 0.676 µM (active)
cells
  EC50: 1.19 µM (active)
[6]
  EC50: < 0.1 µM (active)
[7]
  EC50: < 0.1 µM (active)
BJ [8]
  EC50: 1.56 µM (active)
J774.A1
  IC50: > 25 µM (inactive)
BJ [9]
  EC50: 0.479 µM (active)
[10]
  EC50: 1.04 µM (active)
[11]
  EC50: 1.36 µM (active)

## Cc1ccc(N2CCN(c3ccc(NCc4nc5ccccc5n4C)cc3)CC2)cc1
Protein Rev
  IC50: 19.6 µM (not active)
[12]
  IC50: > 2.21 µM (active)
[13]
  EC50: 1.06 µM (active)
Nonstructural protein 1
  IC50: 75.6 µM (active)

## CC(=O)Nc1ccc(S(=O)(=O)Nc2cccc(-c3nc4ccccc4o3)c2)cc1
Trypsin
  AC50: 5.89 µM (active)
CAAX prenyl protease 2 [14]
  AC50: 14.4 µM (active)
CAAX prenyl protease 1
  AC50: 7.83 µM (active)
CAAX prenyl protease 2 [15]
  AC50: 7.75 µM (active)
[16]
  IC50: > 100 µM (active)

## CCCC1=NN2C(=N)/C(=C\c3ccc(SCc4ccco4)o3)C(=O)N=C2S1
Large T antigen
  IC50: 29.3 µM (active)
Estrogen receptor beta [17]
  IC50: 2.65 µM (active)
Estrogen receptor beta [18]
  IC50: > 50 µM (not active)
[19]
  IC50: 59.4 µM (active)
[20]
  IC50: 3.18 µM (active)
[21]
  IC50: > 75 µM (active)
[22]
  IC50: 13.7 µM (active)
[23]
  IC50: 6.34 µM (active)
Prothrombin
  IC50: 22.8 µM (active)
Protein skinhead-1
  IC50: > 100 µM (inactive)
Protein Tat
  IC50: 1.98 µM (inconclusive)

## Cc1cc2nn(-c3cccc4ccccc34)nc2cc1N
[24]
  IC50: 8.23 µM (active)
[25]
  IC50: 46.7 µM (active)
Caspase-3
  EC50: > 85.2 µM (inactive)
Caspase-7
  EC50: > 85.2 µM (inactive)
